From patent US20230159445A1, “STAT INHIBITORY COMPOUNDS AND COMPOSITIONS” (JANPIX LIMITED, priority 2020, published 2023)

Key:
glutathione (GSH) = test: Reactivity Profiling with Glutathione (GSH), half-life by HPLC; conditions: 5 mM glutathione (GSH) in IMDM with 10% FBS
MV4-11 cells = test: MV4-11 Cell Cytotoxicity Assay (CellTiter-Blue, 72 h); format: cell-based, human; conditions: Homo sapiens, MV4-11; MV-4-11 cells
Method in brief: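 Viability read-out: CellTiter-Blue, 1 h, fluorescence 560/590 nm. Preceded by 72 h exposure (37° C, 5% CO2) to twofold dilution series from 50 μM, triplicate, 0.5% DMSO vehicle, applied 24 h after plating.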

half-life at 25 μM (glutathione (GSH)) [h]	Compound	IC50 (MV4-11 cells) [nM]
0.00167 to 2.37	O=C(O)c1ccc(N(Cc2ncccn2)C(=O)CN(Cc2ccccc2C(F)(F)F)S(=O)(=O)c2c(F)c(F)c(F)c(F)c2F)c(OC2CC2)c1 [Compound 1128, 3-cyclopropoxy-4-(2-(N-(2-(trifluoromethyl)benzyl)-(2,3,4,5,6-pentafluoro-phenyl)sulfonamido)-N-(pyrimidin-2-ylmethyl)acetamido) benzoic acid]	1000 to 3160
9.23 to 1670	CC(C)(C)c1cc(CN(C(=O)CN(Cc2ccc(C(F)(F)F)cc2)S(=O)(=O)c2c(F)c(F)c(F)c(F)c2F)c2ccc(C(=O)O)cc2OC2CC2)cc(C2CC2)c1 [Compound 1136, 4-(N-(3-(tert-butyl)-5-cyclopropylbenzyl)-2-(N-(4-(trifluoromethyl)benzyl)-(2,3,4,5,6-pentafluoro-phenyl)sulfonamido)acetamido)-3-cyclopropoxybenzoic acid]	1000 to 3160
2.37 to 4.12	C[C@H](CC(=O)N(Cc1cc(C2CC2)cc(C(C)(C)C)c1)c1ccc(C(=O)O)c(O)c1)N(Cc1ccc(Cl)cc1)S(=O)(=O)c1c(F)c(F)c(F)c(F)c1F [Compound 1039, (R)-4-(N-(3-(tert-butyl)-5-cyclopropylbenzyl)-3-(N-(4-chlorobenzyl)-(2,3,4,5,6-pentafluorophenyl)sulfon-amido)butanamido)-2-hydroxybenzoic acid]	1000 to 3160
9.23 to 1670	CC(C)(C)c1cc(CN(C(=O)CN(Cc2ccccc2F)S(=O)(=O)c2c(F)c(F)c(F)c(F)c2F)c2ccc(C(=O)O)cc2N2CCC2)cc(C2CC2)c1 [Compound 1058, 3-(azetidin-1-yl)-4-(N-(3-(tert-butyl)-5-cyclopropylbenzyl)-2-(N-(2-fluorobenzyl)-(2,3,4,5,6-pentafluoro-phenyl)sulfonamido)acetamido)benzoic acid]	316 to 1000
0.00167 to 2.37	O=C(O)c1ccc(N(Cc2cc(Br)cc(C3CC3)c2)C(=O)CN(Cc2ccc(Cl)cc2)S(=O)(=O)c2c(F)c(F)c(F)c(F)c2F)cc1O [Compound 1054, 4-(N-(3-bromo-5-cyclopropylbenzyl)-2-(N-(4-chlorobenzyl)-(2,3,4,5,6-pentafluorophenyl)sulfon-amido)acetamido)-2-hydroxybenzoic acid]	3160 to 100000
9.23 to 1670	CC(C)(C)c1cc(CN(C(=O)CN(Cc2ccc(Cl)cc2)S(=O)(=O)c2c(F)c(F)c(F)c(F)c2F)c2ccc(C(N)=O)cc2)cc(C2CC2)c1 [Compound 1031, 4-(N-(3-(tert-butyl)-5-cyclopropylbenzyl)-2-(N-(4-chlorobenzyl)-(2,3,4,5,6-pentafluorophenyl)sulfon-amido)acetamido) benzamide]	1000 to 3160
2.37 to 4.12	CC(c1cc(CN(C(=O)CN(Cc2ccccc2F)S(=O)(=O)c2c(F)c(F)c(F)c(F)c2F)c2ccc(C(=O)O)c(O)c2)cc(C2CC2)c1)C(F)(F)F (stereo not drawn) [Compound 1086, 4-(N-(3-cyclopropyl-5-(1,1,1-trifluoropropan-2-yl)benzyl)-2-(N-(2-fluorobenzyl)-(2,3,4,5,6-pentafluoro-phenyl)sulfonamido)acetamido)-2-hydroxybenzoic acid]	1000 to 3160
2.37 to 4.12	COc1cc(C(=O)O)ccc1N(Cc1cc(C2CC2)cc(C(C)(C)C)c1)C(=O)CN(Cc1c(F)c(F)cc(F)c1F)S(=O)(=O)c1c(F)c(F)c(F)c(F)c1F [Compound 1082, 4-(N-(3-(tert-butyl)-5-cyclopropylbenzyl)-2-(N-(2,3,5,6-tetrafluorobenzyl)-(2,3,4,5,6-pentafluoro-phenyl)sulfonamido)acetamido)-3-methoxybenzoic acid]	0.01 to 316
0.00167 to 2.37	COc1cc(C(=O)O)ccc1N(Cc1cccc(C(C)(C)C)c1)C(=O)CN(Cc1cnccc1C(F)(F)F)S(=O)(=O)c1c(F)c(F)c(F)c(F)c1F [Compound 1149, 4-(N-(3-(tert-butyl)benzyl)-2-(N-((4-(trifluoromethyl)pyridin-3-yl)methyl)-(2,3,4,5,6-pentafluoro-phenyl)sulfonamido)acetamido)-3-methoxybenzoic acid]	316 to 1000
4.12 to 9.23	CC(C)(C)c1cc(CN(C(=O)CN(Cc2ncccc2C(F)(F)F)S(=O)(=O)c2c(F)c(F)c(F)c(F)c2F)c2ccc(C(=O)O)cc2C2CC2)cc(C2CC2)c1 [Compound 1115, 4-(N-(3-(tert-butyl)-5-cyclopropylbenzyl)-2-(N-((3-(trifluoromethyl)pyridin-2-yl)methyl)-(2,3,4,5,6-pentafluoro-phenyl)sulfonamido)acetamido)-3-cyclopropylbenzoic acid]	0.01 to 316
4.12 to 9.23	CN(C)c1cc(C(=O)O)ccc1N(Cc1cc(C2CC2)cc(C(C)(C)C)c1)C(=O)CN(Cc1ccccc1F)S(=O)(=O)c1c(F)c(F)c(F)c(F)c1F [Compound 1105, 4-(N-(3-(tert-butyl)-5-cyclopropylbenzyl)-2-(N-(2-fluorobenzyl)-(2,3,4,5,6-pentafluoro-phenyl)sulfonamido)acetamido)-3-(dimethylamino)benzoic acid]	0.01 to 316
0.00167 to 2.37	O=C(O)c1ccc(N(Cc2ccccc2)C(=O)CN(Cc2ccccc2C(F)(F)F)S(=O)(=O)c2c(F)c(F)c(F)c(F)c2F)c(OC2CC2)c1 [Compound 1126, 4-(N-benzyl-2-(N-(2-(trifluoromethyl)benzyl)-(2,3,4,5,6-pentafluoro-phenyl)sulfonamido)acetamido)-3-cyclopropoxybenzoic acid]	1000 to 3160
2.37 to 4.12	COc1cc(C(=O)O)ccc1N(Cc1cc(C2CC2)cc(C(C)(C)C)c1)C(=O)CN(Cc1ncc(F)cc1Cl)S(=O)(=O)c1c(F)c(F)c(F)c(F)c1F [Compound 1179, 4-(N-(3-(tert-butyl)-5-cyclopropylbenzyl)-2-(N-((3-chloro-5-fluoropyridin-2-yl)methyl)-(2,3,4,5,6-pentafluorophenyl)sulfon-amido)acetamido)-3-methoxybenzoic acid]	0.01 to 316
9.23 to 1670	CC(C)(C)c1cc(CN(C(=O)CN(Cc2ccccc2N2CCCC2)S(=O)(=O)c2c(F)c(F)c(F)c(F)c2F)c2ccc(C(=O)O)cc2OC2CC2)cc(C2CC2)c1 [Compound 1237, 4-(N-(3-(tert-butyl)-5-cyclopropylbenzyl)-2-(N-(2-(pyrrolidin-1-yl)benzyl)-(2,3,4,5,6-pentafluoro-phenyl)sulfonamido)acetamido)-3-cyclopropoxybenzoic acid]	316 to 1000
9.23 to 1670	CC(C)(C)c1cc(CN(C(=O)CN(Cc2ccc(Cl)cc2)S(=O)(=O)c2c(F)c(F)c(F)c(F)c2F)c2ccc(C(=O)O)cc2OC(F)(F)F)cc(C2CC2)c1 [Compound 1050, 4-(N-(3-(tert-butyl)-5-cyclopropylbenzyl)-2-(N-(4-chlorobenzyl)-(2,3,4,5,6-pentafluorophenyl)sulfon-amido)acetamido)-3-(trifluoromethoxy) benzoic acid]	1000 to 3160
0.00167 to 2.37	COc1cc(C(=O)O)ccc1N(Cc1cc(C2CC2)cc(N2CCCC2)c1)C(=O)CN(Cc1cnccc1C(F)(F)F)S(=O)(=O)c1c(F)c(F)c(F)c(F)c1F [Compound 1165, 4-(N-(3-cyclopropyl-5-(pyrrolidin-1-yl)benzyl)-2-(N-((4-(trifluoromethyl)pyridin-3-yl)methyl)-(2,3,4,5,6-pentafluoro-phenyl)sulfonamido)acetamido)-3-methoxybenzoic acid]	316 to 1000
0.00167 to 2.37	COc1cc(C(=O)O)ccc1N(Cc1cccc(N2CCCC2)c1)C(=O)CN(Cc1cnccc1C(F)(F)F)S(=O)(=O)c1c(F)c(F)c(F)c(F)c1F [Compound 1153, 3-methoxy-4-(2-(N-((4-(trifluoromethyl)pyridin-3-yl)methyl)-(2,3,4,5,6-pentafluoro-phenyl)sulfonamido)-N-(3-(pyrrolidin-1-yl)benzyl)acetamido) benzoic acid]	316 to 1000
4.12 to 9.23	COc1ccccc1CN(CC(=O)N(Cc1cc(C2CC2)cc(C(C)(C)C)c1)c1ccc(C(=O)O)cc1OC1CC1)S(=O)(=O)c1c(F)c(F)c(F)c(F)c1F [Compound 1234, 4-(N-(3-(tert-butyl)-5-cyclopropylbenzyl)-2-(N-(2-methoxybenzyl)-(2,3,4,5,6-pentafluoro-phenyl)sulfonamido)acetamido)-3-cyclopropoxybenzoic acid]	316 to 1000
2.37 to 4.12	O=C(O)c1ccc(N(C(=O)CN(Cc2ccccc2C(F)(F)F)S(=O)(=O)c2c(F)c(F)c(F)c(F)c2F)C2CCC2)c(OC2CC2)c1 [Compound 1129, 4-(N-cyclobutyl-2-(N-(2-(trifluoromethyl)benzyl)-(2,3,4,5,6-pentafluoro-phenyl)sulfonamido)acetamido)-3-cyclopropoxybenzoic acid]	3160 to 100000
2.37 to 4.12	COc1cc(C(=O)O)ccc1N(Cc1cc(C2CC2)cc(C(C)(C)C)c1)C(=O)CN(Cc1ccc(C(F)(F)F)cn1)S(=O)(=O)c1c(F)c(F)c(F)c(F)c1F [Compound 1117, 4-(N-(3-(tert-butyl)-5-cyclopropylbenzyl)-2-(N-((5-(trifluoromethyl)pyridin-2-yl)methyl)-(2,3,4,5,6-pentafluoro-phenyl)sulfonamido)acetamido)-3-methoxybenzoic acid]	316 to 1000
9.23 to 1670	CC(C)(C)c1cc(CN(C(=O)CN(Cc2ccc(Cl)cc2)S(=O)(=O)c2c(F)c(F)c(F)c(F)c2F)c2ccc(S(N)(=O)=O)cc2)cc(C2CC2)c1 [Compound 1055, N-(3-(tert-butyl)-5-cyclopropylbenzyl)-2-(N-(4-chlorobenzyl)-(2,3,4,5,6-pentafluorophenyl)sulfon-amido)-N-(4-sulfamoylphenyl) acetamide]	1000 to 3160
